Where “and” joins values, the source holds several entries; their conditions need not be identical. Equal values may be shown once.
Columns and labels:
[1] = system: healthy pre-menopausal women; assay: Example 9: pharmacodynamics, menstruation, hot flash diary, bone resorption markers; type: in vivo, human
Text: Methods: This was a 6-week phase 1, randomized, open-label, parallel-group, study conducted at 4 sites in the US. […] The first day of dosing occurred on Day 1 to 6 of the menstrual cycle. Hormonal preparations were prohibited for at least 3 months prior to screening. […] Vasomotor symptoms were captured using a daily diary (from screening until follow-up).

FIG. 6B = assay: FIG. 6B
Procedure: Table printed on a drawing sheet, FIG. 6B
The patent's description of the figure: FIGS. 6A-C are tables of plasma PK parameters for Cohort 7 in accordance with Example 4.
First reader's note: Part of a plasma PK table series (FIGS. 6A-C) for Cohort 7; each column is a fed or fasted 40 mg arm.

FIG. 11 = assay: FIG. 11
Text: Table printed on a drawing sheet, FIG. 11
The patent's description of the figure: FIG. 11 is a table of plasma and urine PK parameters for Cohorts 8 to 10 on Days 1 and 14 of the treatment period in accordance with Example 4.
First reader's note: Each column is one dose cohort on one treatment day; the Min and Max rows give the range of the median Tmax, and 'nc' is not explained on the sheet.

women with endometriosis = assay: Example 8A: safety (adverse events, BMD, menstruation recovery); details: for Change from Baseline in BMD, mean: Week 24
Text: Study participants were premenopausal (≥20 years) Japanese women with endometriosis (EM)-associated pain who completed a preceding 12-week study and were eligible to continue for an additional 12-week treatment were enrolled. The participants has confirmed normal regular menstrual cycles (25 to 38 days per cycle) and diagnosed to have EM and EM-related dysmenorrhea and pelvic pain of at least moderate severity as determined by the physician B&B scale. The primary endpoint was the safety including assessment of change in bone mineral density (BMD) using dual energy x-ray absorptiometry, adverse events, vital signs, weight, 12-lead electrocardiograms, and clinical laboratory tests.
The present extension study consisted of an additional treatment period of 12 weeks and a follow-up period of 4 weeks. Overall treatment duration was 24 weeks from the beginning of the preceding phase 2 study. Patients were assigned to the same treatment group as the preceding phase 2 study.

In the case of `CONC(=O)Nc1ccc(-c2sc3c(c2CN(C)C)c(=O)n(-c2ccc(OC)nn2)c(=O)n3Cc2c(F)cccc2F)cc1` [Compound 1, N-(4-(1-(2,6-difluorobenzyl)-5-((dimethylamino)methyl)-3-(6-methoxy-3-pyridazinyl)-2,4-dioxo-1,2,3,4-tetrahydrothieno[2,3-d]pyrimidin-6-yl)phenyl)-N′-methoxyurea], the “No light/normal/heavy bleeding (i.e., no bleeding except spotting)” value ([1]; last 28 days of treatment) is reported as 22 (88.0%) n (%), the No normal/heavy bleeding ([1]; last 28 days of treatment) is reported as 23 (92.0%) n (%) and the “subjects reporting no menstrual bleeding (except spotting)” value ([1]; last 28 days of treatment) is reported as 88.0%. The “subjects reporting no normal or heavy bleeding” value ([1]; last 28 days of treatment) was 92.0%, the “average number of hot flash per subject (any severity)” value ([1]; week 6) was 72.6 and the “number of hot flash in subjects reporting severe hot flash” value ([1]; week 6) was 63.2. The “proportion of subjects reporting hot flash” value ([1]; week 6) was 60%, the “Lambda_z (1/hr) | Mean” value (FIG. 6B) was 0.04147 h⁻¹ and 0.04013 h⁻¹ and the “T1/2 (hr) | Mean” value (FIG. 6B) was 16.9911 h and 17.6896 h. For the same compound, the “Tmax (hr) | Median” value (FIG. 6B) was 3.005 h and 3.980 h, the “Tmax (hr) | Median” value (FIG. 11) was 1.00 h and the “Menstruation Recovery Period, mean” value (women with endometriosis; 10 mg) was 21 days. The “Any TEAEs” value (women with endometriosis; 10 mg (N = 103)) was 89 N, the Headache (women with endometriosis; 10 mg (N = 103)) was 5 N and the Hot flush (women with endometriosis; 10 mg (N = 103)) was 12 N. The Hyperhidrosis (women with endometriosis; 10 mg (N = 103)) was 4 N, the Menorrhagia (women with endometriosis; 10 mg (N = 103)) was 11 N and the “Menstruation Irregular” value (women with endometriosis; 10 mg (N = 103)) was 21 N. The Metrorrhagia (women with endometriosis; 10 mg (N = 103)) was 28 N, the Nasopharyngitis (women with endometriosis; 10 mg (N = 103)) was 31 N and the Oligomenorrhea (women with endometriosis; 10 mg (N = 103)) was 12 N. For the same compound, the “Serious TEAEs” value (women with endometriosis; 10 mg (N = 103)) was 0 N, the “TEAEs Leading to Study Drug Discontinuation” value (“TEAEs Leading” for short) (women with endometriosis; 10 mg (N = 103)) was 1 N and the “TEAEs Related to Study Drug” value (women with endometriosis; 10 mg (N = 103)) was 68 N. For the same compound, the “TEAEs, Mild” value (women with endometriosis; 10 mg (N = 103)) was 83 N, the “TEAEs, Moderate” value (women with endometriosis; 10 mg (N = 103)) was 6 N and the “TEAEs, Severe” value (women with endometriosis; 10 mg (N = 103)) was 0 N. The “Change from Baseline in BMD, mean” value (women with endometriosis; 10 mg) was −1.6%, the “Menstruation Recovery Period, mean” value (women with endometriosis; 20 mg) was 26 days and the “Any TEAEs” value (women with endometriosis; 20 mg (N = 100)) was 96 N. It also gave a Headache (women with endometriosis; 20 mg (N = 100)) of 12 N, a Hot flush (women with endometriosis; 20 mg (N = 100)) of 23 N and a Hyperhidrosis (women with endometriosis; 20 mg (N = 100)) of 11 N. For the same compound, the Menorrhagia (women with endometriosis; 20 mg (N = 100)) was 16 N, the “Menstruation Irregular” value (women with endometriosis; 20 mg (N = 100)) was 21 N and the Metrorrhagia (women with endometriosis; 20 mg (N = 100)) was 36 N. For the same compound, the Nasopharyngitis (women with endometriosis; 20 mg (N = 100)) was 31 N, the Oligomenorrhea (women with endometriosis; 20 mg (N = 100)) was 12 N and the “Serious TEAEs” value (women with endometriosis; 20 mg (N = 100)) was 2 N. For the same compound, the “TEAEs Leading” value (women with endometriosis; 20 mg (N = 100)) was 7 N, the “TEAEs Related to Study Drug” value (women with endometriosis; 20 mg (N = 100)) was 88 N and the “TEAEs, Mild” value (women with endometriosis; 20 mg (N = 100)) was 82 N. For the same compound, the “TEAEs, Moderate” value (women with endometriosis; 20 mg (N = 100)) was 14 N, the “TEAEs, Severe” value (women with endometriosis; 20 mg (N = 100)) was 0 N and the “Change from Baseline in BMD, mean” value (women with endometriosis; 20 mg) was −2.6%. The “Menstruation Recovery Period, mean” value (women with endometriosis; 40 mg) was 37 days, the “Any TEAEs” value (women with endometriosis; 40 mg (N = 103)) was 98 N and the Headache (women with endometriosis; 40 mg (N = 103)) was 11 N. It also gave a Hot flush (women with endometriosis; 40 mg (N = 103)) of 55 N, a Hyperhidrosis (women with endometriosis; 40 mg (N = 103)) of 10 N and a Menorrhagia (women with endometriosis; 40 mg (N = 103)) of 15 N. The “Menstruation Irregular” value (women with endometriosis; 40 mg (N = 103)) was 7 N, the Metrorrhagia (women with endometriosis; 40 mg (N = 103)) was 30 N and the Nasopharyngitis (women with endometriosis; 40 mg (N = 103)) was 31 N. The Oligomenorrhea (women with endometriosis; 40 mg (N = 103)) was 1 N, the “Serious TEAEs” value (women with endometriosis; 40 mg (N = 103)) was 0 N and the “TEAEs Leading” value (women with endometriosis; 40 mg (N = 103)) was 2 N. For the same compound, the “TEAEs Related to Study Drug” value (women with endometriosis; 40 mg (N = 103)) was 91 N, the “TEAEs, Mild” value (women with endometriosis; 40 mg (N = 103)) was 83 N and the “TEAEs, Moderate” value (women with endometriosis; 40 mg (N = 103)) was 15 N. The “TEAEs, Severe” value (women with endometriosis; 40 mg (N = 103)) was 0 N and the “Change from Baseline in BMD, mean” value (women with endometriosis; 40 mg) was −4.9%.

Reference: patent US11957684B2, “Treatment of heavy menstrual bleeding associated with uterine fibroids” (Sumitomo Pharma Switzerland GmbH, priority 2016, dated 2024)
